Patent publication US20070167526A1, “Topical mecamylamine formulations for ocular administration and uses thereof” (priority 2005, published 2007)
Where two headings read alike, the source gives them in different places.

Assays:
[1] = 6-hour ocular pharmacokinetics of 2% Mecamylamine GELRITE solution following topical instillation (Example 10); assay type: in vivo, New Zealand White rabbit; conditions: rabbit; for concentration at 1 h / concentration at 6 h / concentration at 3 h: female, New Zealand White, topical; for Mecamylamine concentration in blood Cell Fraction, Mean / Mecamylamine concentration in blood Plasma, Mean: Pre
Description: The time of each dose administration was recorded. There was no mortality in the treatment group.

healthy adults = test: Phase 1 ocular and systemic safety of mecamylamine ophthalmic solution (Example 11); assay type: in vivo; conditions: human
Excerpt: A phase 1 study entitled: “A Phase 1, Double-Masked, Randomized, 1-Day and 14-Day Escalating Dose Study to Assess the Ocular and Systemic Safety of Mecamylamine Ophthalmic Solution” was initiated in the United States in healthy adults. The safety objectives of this study were to evaluate the ocular and systemic safety of 4 concentrations of mecamylamine ophthalmic solution following 1-day (administered twice) and 14-day (BID) administration. The dose levels of mecamylamine ophthalmic solution evaluated were 0.03%, 0.1%, 0.3%, and 1%. A summary of the composition of the mecamylamine ophthalmic solution and placebo formulation is shown below in Table 7.
In the 1-day portion of the study, 10 subjects in each group were dosed in a single eye on two occasions with 6 hours between dosing. […] Subjects were evaluated for local (ocular) safety and tolerability based upon evaluation of ocular symptoms, ocular comfort, best-corrected visual acuity, biomicroscopy with fluorescein staining, measurement of intraocular pressure (IOP) by Goldman applanation tonometry, ophthalmoscopy, pupil size, and Schirmer's Test. They were also evaluated for systemic safety based upon assessment of physical examination, 12-lead ECG, vital signs, adverse events, hematology, clinical chemistry, and, urinalysis.

[2] = system: VEGF-induced endothelial tube formation; test: VEGF-induced endothelial tube formation in vitro; assay type: cell-based
[3] = cited from earlier work

`CNC1(C)C2CCC(C2)C1(C)C` (stereo not drawn) [mecamylamine, N-2,3,3-tetramethylbicyclo(2.2.1)heptan-2-amine] gave a concentration at 1 h ([1]; choroid (treated eye), 2% in GELRITE, 2 × 50 μL, OS (unilateral) treated eye, 1 hr, read-out: Mecamylamine concentration in Choroid, Mean) of roughly 2800 ng/g, a concentration at 1 h ([1]; choroid of the fellow (vehicle) eye, fellow (vehicle) eye of unilaterally dosed animals, 1 hr, read-out: Mecamylamine concentration in Choroid, Mean) of roughly 700 ng/g and a concentration at 1 h ([1]; choroid, 2% in GELRITE, 2 × 50 μL, OU (bilateral), 1 hr, read-out: Mecamylamine concentration in Choroid, Mean) of roughly 14000 ng/g. The concentration at 6 h ([1]; choroid, 2% in GELRITE, 2 × 50 μL, OU (bilateral), 6 hr, read-out: Mecamylamine concentration in Choroid, Mean) was roughly 260 ng/g, the concentration at 1 h ([1]; cornea, 2% in GELRITE, 2 × 50 μL, OS (unilateral) treated eye, 1 hr, read-out: Mecamylamine concentration in Cornea, Mean) was 9600 ng/g and the concentration at 1 h ([1]; cornea, 2% in GELRITE, 2 × 50 μL, OU (bilateral), 1 hr, read-out: Mecamylamine concentration in Cornea, Mean) was 17900 ng/g. For the same compound, the concentration at 3 h ([1]; cornea, 2% in GELRITE, 2 × 50 μL, OU (bilateral), 3 hr, read-out: Mecamylamine concentration in Cornea, Mean) was 3820 ng/g, the concentration at 6 h ([1]; cornea, 2% in GELRITE, 2 × 50 μL, OU (bilateral), 6 hr, read-out: Mecamylamine concentration in Cornea, Mean) was 1230 ng/g and the concentration at 1 h ([1]; cornea, fellow (vehicle) eye of unilaterally dosed animals, 1 hr, read-out: Mecamylamine concentration in Cornea, Mean) was 652 ng/g. It also gave a concentration at 1 h ([1]; plasma, group MEC OS 1 hr, Post, read-out: Mecamylamine concentration in blood Plasma, Mean) of 16.3 ng/mL, a concentration at 1 h ([1]; plasma, group MEC OU 1 hr, Post, read-out: Mecamylamine concentration in blood Plasma, Mean) of 37.8 ng/mL and a concentration at 3 h ([1]; plasma, group MEC OU 3 hr, Post, read-out: Mecamylamine concentration in blood Plasma, Mean) of 8.3 ng/mL. It also gave a concentration at 6 h ([1]; plasma, group MEC OU 6 hr, Post, read-out: Mecamylamine concentration in blood Plasma, Mean) of 0.3 ng/mL, a concentration at 1 h ([1]; retina, 2% in GELRITE, 2 × 50 μL, OS (unilateral) treated eye, 1 hr, read-out: Mecamylamine concentration in Retina, Mean) of 4160 ng/g and a concentration at 1 h ([1]; retina, 2% in GELRITE, 2 × 50 μL, OU (bilateral), 1 hr, read-out: Mecamylamine concentration in Retina, Mean) of 14700 ng/g. The concentration at 3 h ([1]; retina, 2% in GELRITE, 2 × 50 μL, OU (bilateral), 3 hr, read-out: Mecamylamine concentration in Retina, Mean) was 563 ng/g, the concentration at 6 h ([1]; retina, 2% in GELRITE, 2 × 50 μL, OU (bilateral), 6 hr, read-out: Mecamylamine concentration in Retina, Mean) was 310 ng/g and the concentration at 1 h ([1]; retina, fellow (vehicle) eye of unilaterally dosed animals, 1 hr, read-out: Mecamylamine concentration in Retina, Mean) was 781 ng/g. It also gave a concentration at 1 h ([1]; vitreous humor, 2% in GELRITE, 2 × 50 μL, OS (unilateral) treated eye, 1 hr, read-out: Mecamylamine concentration in Vitreous humor, Mean) of 37.8 ng/g, a concentration at 1 h ([1]; vitreous humor, 2% in GELRITE, 2 × 50 μL, OU (bilateral), 1 hr, read-out: Mecamylamine concentration in Vitreous humor, Mean) of 131 ng/g and a concentration at 3 h ([1]; vitreous humor, 2% in GELRITE, 2 × 50 μL, OU (bilateral), 3 hr, read-out: Mecamylamine concentration in Vitreous humor, Mean) of 17.7 ng/g. The concentration at 6 h ([1]; vitreous humor, 2% in GELRITE, 2 × 50 μL, OU (bilateral), 6 hr, read-out: Mecamylamine concentration in Vitreous humor, Mean) was 5.9 ng/g, the concentration at 1 h ([1]; vitreous humor, fellow (vehicle) eye of unilaterally dosed animals, 1 hr, read-out: Mecamylamine concentration in Vitreous humor, Mean) was 10.4 ng/g and the “Mecamylamine concentration in Choroid, Mean” value ([1]; 2% in GELRITE, 2 × 50 μL, OS (unilateral) treated eye, 1 hr, listed as MEC) was 2806.7 ng/g. The “Mecamylamine concentration in Choroid, Mean” value ([1]; 2% in GELRITE, 2 × 50 μL, OU (bilateral), 1 hr, listed as MEC) was 14170.0 ng/g, the “Mecamylamine concentration in Choroid, Mean” value ([1]; 2% in GELRITE, 2 × 50 μL, OU (bilateral), 3 hr) was roughly 500 ng/g and the “Mecamylamine concentration in Choroid, Mean” value ([1]; 2% in GELRITE, 2 × 50 μL, OU (bilateral), 3 hr, listed as MEC) was 1086.0 ng/g. The “Mecamylamine concentration in Choroid, Mean” value ([1]; 2% in GELRITE, 2 × 50 μL, OU (bilateral), 6 hr, listed as MEC) was 264.5 ng/g, the “Mean levels in the plasma and packed cells” value ([1]; 2% in GELRITE, highest one hour after bilateral dosing) was 5 to 38 ng/mL and the “Mecamylamine concentration in Choroid, Mean” value ([1]; fellow (vehicle) eye of unilaterally dosed animals, 1 hr, listed as MEC) was 705.7 ng/g. The “Mecamylamine concentration in blood Cell Fraction, Mean” value ([1]; group MEC OS 1 hr) was 0.0 ng/mL, the “Mecamylamine concentration in blood Plasma, Mean” value ([1]; group MEC OS 1 hr) was 0.0 ng/mL and the “Mecamylamine concentration in blood Cell Fraction, Mean” value ([1]; group MEC OU 1 hr) was 0.0 ng/mL. For the same compound, the “Mecamylamine concentration in blood Plasma, Mean” value ([1]; group MEC OU 1 hr) was 0.0 ng/mL, the “Mecamylamine concentration in blood Cell Fraction, Mean” value ([1]; group MEC OU 3 hr) was 0.0 ng/mL and the “Mecamylamine concentration in blood Plasma, Mean” value ([1]; group MEC OU 3 hr) was 0.0 ng/mL. For the same compound, the “Mecamylamine concentration in blood Cell Fraction, Mean” value ([1]; group MEC OU 6 hr) was 0.0 ng/mL, the “Mecamylamine concentration in blood Plasma, Mean” value ([1]; group MEC OU 6 hr) was 0.0 ng/mL and the best-corrected visual acuity (healthy adults) was “no change in best corrected visual acuity”. For the same compound, the pupil size (healthy adults) was “none of the subjects tested showing an increase in pupil diameter”, the “VEGF-induced endothelial tube formation” value [2] was “inhibited” and the pka [3] was roughly 11.2.
